# Results as given in patent US6589943B2, “Formulation of amphiphilic heparin derivatives for enhancing mucosal absorption” (Mediplex Corporation, Korea, priority 2001, dated 2003).
# Key:
# [1] = zeta potential of particles in sodium bicarbonate buffer; format: physicochemical
# Method: Surface Charges of Heparin-DOCA Particle. Zeta potentials of heparin-DOCA particles in sodium bicarbonate buffer were measured according to procedures well known in the art. The negative potential of heparin-DOCA conjugate particles was decreased by mixing with free DOCA. This was due to the fact that the DOCA moiety coupled to heparin could be exposed on the surface of heparin-DOCA conjugate particles by mixing with free DOCA.
# [2] = background, literature; cited from earlier work
Molecule,Zeta Potential [1] [mv],absorption in the GI tract [2]
"C[C@H](CCC(=O)O)[C@H]1CC[C@H]2[C@@H]3CC[C@@H]4C[C@H](O)CC[C@]4(C)[C@H]3C[C@H](O)[C@]12C [Bile Acid, deoxycholic acid]",−22.3 ± 11.4,–
heparin,–,not absorbed in the GI tract
